Values quoted from earlier work, collected in patent US6849254B1, “HCV combination therapy” (Schering Corporation, priority 1999, dated 2005).

Columns and labels:
CD4 levels = settings: HIV patients; higher doses; Phase I/II clinical trials (PharmaProjects)
[1] = for Potency of 1 mg in IU of Vitamin E: per 1 mg
[2] = system: chronic childhood cholestasis; settings: 20-25 IU/kg/day (Sokool et al.)

Row | Compound | Potency of 1 mg in IU of Vitamin E [1] | also measured
1 | CC(C)(Sc1cc(C(C)(C)C)c(O)c(C(C)(C)C)c1)Sc1cc(C(C)(C)C)c(O)c(C(C)(C)C)c1 [Panavia, 4,4′-isopropylidenedithiobis-2,6-di-t-butylphenol] | – | CD4 levels (CD4 levels): stablized or slightly stabilized CD4 levele
2 | Cc1c(C)c2c(c(C)c1O)CC[C@@](C)(CCC[C@H](C)CCC[C@H](C)CCCC(C)C)O2 [d-alpha tocopherol] | 1.49 IU | –
3 | CC(=O)Oc1c(C)c(C)c2c(c1C)CC[C@@](C)(CCC[C@H](C)CCC[C@H](C)CCCC(C)C)O2 [d-alpha tocopheryl acetate] | 1.36 IU | –
4 | Cc1c(C)c2c(c(C)c1OC(=O)CCC(=O)O)CC[C@@](C)(CCC[C@H](C)CCC[C@H](C)CCCC(C)C)O2 [d-alpha tocopheryl succinate] | 1.21 IU | –
5 | CC(=O)Oc1c(C)c(C)c2c(c1C)CC[C@@](C)(CCC[C@H](C)CCC[C@H](C)CCCC(C)C)O2 [di-alpha tocopheryl acetate] | – | Amount equivalent to one IU of Vitamin E ([1]; per one IU of Vitamin E): 1 mg
6 | d-alpha-tocopheryl polyethylene glycol 1000 succinate [Vitamin E-TPGS] | – | Safety and efficacy in chronic childhood cholestasis [2]: appears to be safe and effective
